Test system: common gut microbes
Experiment: Gut microbe growth on carbohydrate food sources (96-well carbohydrate array, A600 growth curves), whole panel
Format: cell-based
Conditions: all of the gut microflora cultures, sole carbohydrate source, anaerobic, 37° C.
Procedure: The ability of common gut microbes to grow on carbohydrate food sources was measured using a custom carbohydrate array constructed in a 96-well format. See for example, Martens E C, et al, “Recognition and Degradation of Plant Cell Wall Polysaccharides by Two Human Gut Symbionts,” PLOS Biology, volume 9, issue 12, page e1001221 (2011) and Martens E C, Chiang H C, Gordon J I, “Mucosal glycan foraging enhances fitness and transmission of a saccharolytic human gut bacterial symbiont.” Cell Host Microbe 4: 447-457 (2008). Each well of a flat bottom 96-well plate was loaded with 100 µL of each sterilized carbohydrate stock at 2× concentration.
Each substrate was represented in […] on each assay plate in two non-adjacent wells. Two carbohydrate-free water wells were included as negative controls. […] Plates were then loaded into an automated plate handling device coupled to an absorbance reader. Absorbance at 600 nm (A600) was measured for each well at 10-15 min intervals. […]

For `CC(=O)N[C@H]1C(O)O[C@H](CO)[C@@H](O)[C@@H]1O` (stereo partly shown) [N-acetylglucosamine], the “growth of the gut microflora cultures on the carbohydrate” value was “grew well”.
